“Also recorded” adds a separate entry of the source. Like-named read-outs stand apart in the source and are kept apart here. Values belong to the compound of their own block, whether it stands above or below them.
Legend:
[1] = tested on: α2A-adrenergic receptor KO INS-1E cells; assay: cells; settings: Rattus norvegicus, read-out: IC50, inhibition of GSIS
From the text: (§5) We employed a CRISPR-Cas9-mediated approach to delete endogenous α2A-adrenergic receptor expression in INS-1E cells. Since INS-1E cells are rat-derived, we used the mRNA sequence encoding rat α2A-adrenergic receptor as a template to generate guide RNA (gRNA) to disrupt the promoter region of the Adra2a gene (gRNA sequence: 5′-[sequence]-3′, positions 57–76). We then generated a construct containing the Adra2a gRNA sequence along with cDNA sequences encoding Cas9 and GFP (pENTR-Adra2a-sgRNA-Cas9-GFP). 1–5 μg of the construct was subsequently transfected into low-passage INS-1E cells using Lipofectamine 3000 (ThermoFisher Scientific) according to manufacturer instructions. 24–48 h post-transfection, the transfected cells were identified and collected by fluorescence-activated cell sorting based on GFP fluorescence using a BD FACSAria II sorter (BD Biosciences, San Jose, CA) equipped with a GFP filter (530/30 nm).
(§6) Insulin secretion assays in INS-1E cells were conducted as described earlier[7],[42]. […] Insulin secretion was carried out 48 h after seeding the cells. On an experimental day, cells were first glucose-starved in KRB (0 mM glucose) for 1 h (37 °C, 5% CO2), followed by glucose stimulation with KRB supplemented with 20 mM glucose in the presence or absence of drugs for 90 min (37 °C, 5% CO2). The supernatants were collected and diluted 1:10 in KRB for the insulin detection assay.
(§7) The assay is based on homogeneous time-resolved fluorescence resonance energy transfer (HTRF) technology. Standard curve and assay samples (10 μL/well) were plated into a 384-well white, low-volume, round-bottom plate (Corning, Corning, NY). […] Secreted insulin was similarly detected and measured by an HTRF approach using the insulin high range detection kit (Cisbio Bioassays) as described previously[42]. The two anti-insulin antibodies were mixed in a 1:2 donor (cryptate)/acceptor (XL665) ratio in the insulin assay detection buffer (Cisbio Bioassays) and 15 µL of the insulin antibody mix was added per well. For both glucagon and insulin HTRF assays, the incubation time was 2 h at room temperature. […] The raw data were obtained in ng/mL insulin secreted and pg/mL glucagon secreted. Dose-response curves were fit via non-linear regression of Log[ligand] versus normalized % glucagon or insulin secretion. Investigators were blinded to the identity of samples during the initial analysis.

[2] = molecular target: T1, endogenous α2A-adrenergic receptors in INS-1E cells (Rattus norvegicus, UniProt P22909); assay: [3H]RX821002 radioligand binding, INS-1E cell membranes; settings: for Bmax, saturation binding / Kd: parental INS-1E cell membranes; for Kd: read-out: KD, saturation binding
T1 construct: adherent INS-1E cells expressing the endogenous α2A-adrenergic receptors; endogenous in cells; host or cells: INS-1E (rat insulinoma) cell membranes
T1 sequence (P22909 1-465): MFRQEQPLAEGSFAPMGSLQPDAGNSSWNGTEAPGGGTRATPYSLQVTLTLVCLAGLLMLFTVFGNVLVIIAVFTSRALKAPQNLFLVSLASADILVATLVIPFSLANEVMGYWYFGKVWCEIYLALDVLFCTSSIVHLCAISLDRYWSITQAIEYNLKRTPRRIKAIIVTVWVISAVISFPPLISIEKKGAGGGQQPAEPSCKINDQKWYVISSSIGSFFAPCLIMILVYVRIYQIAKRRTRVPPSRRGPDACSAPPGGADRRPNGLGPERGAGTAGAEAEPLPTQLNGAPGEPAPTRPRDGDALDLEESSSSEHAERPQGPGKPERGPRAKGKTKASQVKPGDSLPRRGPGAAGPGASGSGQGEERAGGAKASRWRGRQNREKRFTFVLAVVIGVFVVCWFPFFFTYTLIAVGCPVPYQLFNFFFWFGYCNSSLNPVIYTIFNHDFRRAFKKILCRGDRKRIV
Experimental: (§1) Radioligand binding and competition assays were conducted as previously described. Briefly, adherent INS-1E cells expressing the endogenous α2A-adrenergic receptors or transfected HEK-293 cells overexpressing human α2A-adrenergic receptor were dissociated from plates, and intact cells collected by centrifugation (600–900 g, 5–10 min, 4 °C). Cells were resuspended and lysed using 5 mM Tris-HCl and 5 mM MgCl2 (pH 7.4, 4 °C). Cell lysates were pelleted by centrifugation at 30,000 × g for 30 min and resuspended in Earle’s Balanced Salt Solution with Ca^2+ (pH 7.4). For saturation binding assays, cell lysates (100 µL, 2–5 μg of protein for HEK-293 cells and 10–20 μg of protein for INS-1E cells, quantified by the Bradford Assay) were incubated with the indicated concentrations of [^3H]RX821002 (90 min, room temperature). […] The bound ligand was separated from free ligand by filtration through a Perkin Elmer Unifilter-96 GF/C 96-well microplate using the Perkin Elmer Unifilter-96 Harvester (Perkin Elmer, Waltham, MA), followed by three washes with ice-cold assay buffer. After drying, a liquid scintillation cocktail (MicroScint PS; Perkin Elmer) was added to each well, and plates were sealed and analyzed on a Topcount NXT liquid scintillation counter (Perkin Elmer). Ki values were calculated from observed IC50 values using the Cheng–Prusoff equation[47].

[3] = tested on: α-cell glucagon secretion from mouse islets; assay: Islet secretion assay: glucagon secretion from mouse islets; assay type: cell-based; settings: for EC50: read-out: EC50, increase in secreted glucagon
Experimental: (§2) For mouse pancreatic islet preparations, islets were obtained from 8 to 10-week-old wild-type BALB/c mice. Islets were freshly isolated via collagenase digestion of pancreata as described previously. Human pancreatic islets were isolated via collagenase digestion and purified from four non-diabetic human donors (Supplementary Table S1) as described previously. Following isolation and purification, human or mouse islets were plated at a density of 15 islets per well into 24-well tissue culture-treated plates. […] The islets were used immediately after overnight recovery for hormone secretion assays.
(§3) Measurements of hormone secretion were performed using static incubation of pancreatic islets. […] The increased glucose (25 mM) was used to inhibit α-cell glucagon secretion to diminish glucagon levels to basal levels to improve the dynamic range of the assay and thus effectively unmask the role of ligand-mediated glucagon secretion as described earlier. Islets were then transferred to a 24-well plate containing KRB buffer also supplemented with 25 mM glucose. Drug treatments were added in KRB (25 mM glucose) (1 hr, 37 °C, 5% CO2). After treatment, KRB was supplemented with a protease inhibitor cocktail (1 tablet/10 mL KRB; Roche Diagnostics, Mannheim, Germany) to prevent glucagon degradation. Supernatants were collected and placed on ice to further prevent glucagon degradation and precipitation. Undiluted supernatants and 1:2 dilutions were used for the glucagon detection assay, while 1:10 dilutions were used for insulin measurement; all dilutions were in KRB.

[4] = tested on: glucose-stimulated insulin secretion (GSIS) from β-cells in human islets; assay: Islet secretion assay: insulin secretion from human islets; assay type: cell-based; settings: for IC50: read-out: IC50, reduction of insulin secretion (GSIS); for increase in GSIS compared to vehicle / effect on glucose-stimulated insulin secretion: 1 µM; for effect on glucose-stimulated insulin secretion: relative to vehicle
Experimental: as §2, with “Islets” for “For mouse pancreatic islet preparations, islets were obtained from 8 to 10-week-old wild-type BALB/c mice. Islets”
(§4) Measurements of hormone secretion were performed using static incubation of pancreatic islets. […] Islets were then transferred to a 24-well plate containing KRB buffer also supplemented with 25 mM glucose. Drug treatments were added in KRB (25 mM glucose) (1 hr, 37 °C, 5% CO2). After treatment, KRB was supplemented with a protease inhibitor cocktail (1 tablet/10 mL KRB; Roche Diagnostics, Mannheim, Germany) to prevent glucagon degradation. Supernatants were collected and placed on ice to further prevent glucagon degradation and precipitation. Undiluted supernatants and 1:2 dilutions were used for the glucagon detection assay, while 1:10 dilutions were used for insulin measurement; all dilutions were in KRB.

[5] = tested on: parental INS-1E cells; assay: Glucose-stimulated insulin secretion (GSIS) in parental INS-1E cells; assay type: cell-based; settings: Rattus norvegicus, 1.5 h, read-out: IC50, inhibition of GSIS
[6] = tested on: α-cell glucagon secretion in human islets; assay: Islet secretion assay: glucagon secretion from human islets; assay type: cell-based; settings: for effect on glucagon secretion: increasing concentrations, relative to vehicle control; for increase in glucagon secretion compared to vehicle / effect on α-cell glucagon secretion: 1 µM; for effect on α-cell glucagon secretion: relative to vehicle
Experimental: as §2, §3

[7] = tested on: glucose-stimulated insulin secretion (GSIS) from β-cells in mouse islets; assay: Islet secretion assay: insulin secretion from mouse islets; assay type: cell-based
Experimental: as §2, with “Islets” for “For mouse pancreatic islet preparations, islets were obtained from 8 to 10-week-old wild-type BALB/c mice. Islets”
as §4

[8] = molecular target: α2A-adrenergic receptor (Rattus norvegicus, UniProt P22909); assay: NanoBRET Gαi1 recruitment to α2A-adrenergic receptor; assay type: cell-based
Chain of α2A-adrenergic receptor (P63096 2-354 partner limits assumed, one chain of several): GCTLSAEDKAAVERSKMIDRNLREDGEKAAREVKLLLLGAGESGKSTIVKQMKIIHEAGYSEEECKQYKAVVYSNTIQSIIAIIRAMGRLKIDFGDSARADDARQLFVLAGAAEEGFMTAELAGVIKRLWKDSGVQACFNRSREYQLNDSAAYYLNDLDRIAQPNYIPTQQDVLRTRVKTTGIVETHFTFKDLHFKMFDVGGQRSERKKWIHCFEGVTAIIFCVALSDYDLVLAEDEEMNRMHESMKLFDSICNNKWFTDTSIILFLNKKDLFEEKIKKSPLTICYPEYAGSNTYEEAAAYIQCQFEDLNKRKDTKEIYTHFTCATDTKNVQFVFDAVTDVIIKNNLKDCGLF
From the text: For nanoBRET experiments, we used receptor constructs consisting of either human D2R (DRD2) and rat α2A-adrenergic receptor (Adra2a) cDNAs fused to HaloTag at the C-terminus (α2A-AR-HaloTag and D2R-HaloTag). Both receptors were also tagged at the N terminus with an IL6 signal sequence followed by a HiBiT tag. […] All constructs were cloned into a pcDNA3.1(+) vector backbone (ThermoFisher Scientific) and confirmed by sequencing analysis.
For NanoLuc-only controls, empty pcDNA3.1(+) vector was used to maintain a constant amount of total transfected DNA.
Cells were harvested, washed, and resuspended in fresh medium 24 h post-transfection. Approximately 5 × 10^4 cells/well were distributed in pre-coated 96-well plates and allowed to adhere overnight (37 °C, 5% CO2). […] Following labeling, cells were washed once with HBSS, and 5 μM furimazine (substrate for NanoLuc) was added to every well. Drugs were then added to the samples and incubated for […]. Plates were read 5 min following drug addition using a PheraStar FSX equipped with a nanoBRET-compatible optic module (LUM 610 450) (BMG Labtech). […] EC50 values were calculated via a non-linear regression analysis via GraphPad software.

[9] = tested on: α2A-adrenergic receptor KO INS-1E cells; settings: α2A-adrenergic receptor KO INS-1E cells compared to parental
From the text: as §5, §6, §7

[10] = molecular target: T2, human α2A-adrenergic receptor (Homo sapiens, UniProt P08913); assay: [3H]RX821002 radioligand binding, HEK-293 cells overexpressing α2A-adrenergic receptor; settings: membranes from HEK-293 cells overexpressing human α2A-adrenergic receptor
T2 construct: expressed in transfected cells; host or cells: HEK-293 (ATCC CRL-1573), transient transfection
T2 sequence (P08913 1-465): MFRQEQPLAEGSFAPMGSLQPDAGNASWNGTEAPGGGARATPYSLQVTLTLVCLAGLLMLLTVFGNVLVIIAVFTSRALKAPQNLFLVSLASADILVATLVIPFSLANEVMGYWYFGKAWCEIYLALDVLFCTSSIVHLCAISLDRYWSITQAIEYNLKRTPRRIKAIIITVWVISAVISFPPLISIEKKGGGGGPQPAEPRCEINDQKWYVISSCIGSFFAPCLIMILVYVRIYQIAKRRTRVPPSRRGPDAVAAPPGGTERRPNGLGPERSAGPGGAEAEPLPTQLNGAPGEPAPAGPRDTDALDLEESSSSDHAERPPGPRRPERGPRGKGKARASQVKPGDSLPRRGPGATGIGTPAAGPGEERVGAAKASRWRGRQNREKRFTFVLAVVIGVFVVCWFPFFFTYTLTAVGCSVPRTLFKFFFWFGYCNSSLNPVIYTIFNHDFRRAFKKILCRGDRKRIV
Experimental: as §1

[11] = tested on: membranes from α2A-adrenergic receptor KO INS-1E cells; assay: [3H]RX821002 saturation binding, α2A-adrenergic receptor KO INS-1E cell membranes; set-up: species or system rat
Experimental: as §1

[12] = tested on: αTC1–6 cells; assay: Catecholamine secretion assay with HPLC measurement; assay type: cell-based, mouse
Experimental: Cell-based catecholamine secretion assays were conducted as reported earlier[7]. Briefly, αTC1–6 cells were seeded into 24-well plates at an initial seeding density of 5 × 10^5 cells/well in complete DMEM medium. […] Some samples were also supplemented with 10 μM L-DOPA to boost cell catecholamine production in the presence or absence of a monoamine oxidase inhibitor cocktail (10 μM: deprenyl, pargyline, clorgyline). […] Lysates were collected and centrifuged at 17,000 rpm for 5 min at 4 °C to pellet cell debris and then added into HEGA buffer for High-Performance Liquid Chromatography (HPLC) analysis.
Assay samples were filtered (0.20 μm filter; ThermoFisher Scientific) and analyzed via HPLC with electrochemical detection as previously reported[7]. Briefly, samples were separated on a C18 reverse-phase column (Hypersil ODS C18 column, ThermoFisher Scientific) with MD-TM mobile phase (ThermoFisher Scientific).

[13] = parental INS-1E cells, 20 mM glucose, 90 min
[14] = 10 μM L-DOPA supplementation, compared to untreated cells

Structure (SMILES): NCCc1ccc(O)c(O)c1 [DA, Dopamine]
IC50 [1]: 474 ± 2.5 nM | Ki [2]: 164 ± 1.2 nM | EC50 ([3]; Mus musculus, 1 h): 14.9 ± 3.8 nM | IC50 ([4]; Homo sapiens): 26.2 ± 2.9 nM | IC50 ([5]; INS-1E): 1500 ± 2 nM | effect on glucagon secretion [6]: biphasic glucagon secretory response | IC50 ([7]; Mus musculus, read-out: IC50, reduction of insulin secretion (GSIS), mouse islets): 1290 ± 2 nM | IC50 ([7]; read-out: IC50, reduction of insulin secretion (GSIS), mouse islets): 1300 ± 2 nM | EC50 [8]: 2100 ± 2 nM

IC50 [1]: 1400 ± 2 nM | EC50 ([3]; Mus musculus, 1 h, mouse islets, 25 mM glucose, 1 hr): 142 ± 2.3 nM | EC50 ([3]; mouse islets, 25 mM glucose, 1 hr): 142 ± 2.3 nM | IC50 ([4]; Homo sapiens, human islets): 787.2 ± 1.3 nM | IC50 ([4]; human islets): 787 ± 1.3 nM | IC50 ([7]; Mus musculus, mouse islets, read-out: IC50, reduction of insulin secretion (GSIS)): 178 ± 2.4 nM | IC50 ([7]; mouse islets, read-out: IC50, reduction of insulin secretion (GSIS)): 179 ± 2.4 nM
Structure (SMILES): NC[C@H](O)c1ccc(O)c(O)c1 [NE, norepinephrine]
IC50 [5, 13]: 39.8 ± 1.5 nM | effect on glucagon secretion [6]: significantly enhance glucagon secretion; also recorded: significantly increased α-cell glucagon secretion

Structure (SMILES): CN1CCN(C2=Nc3cc(Cl)ccc3Nc3ccccc32)CC1 [clozapine]
increase in GSIS compared to vehicle ([4]; human islets): 19.8 ± 4.0% | effect on glucose-stimulated insulin secretion ([4]; human islets): raised glucose-stimulated insulin secretion | increase in glucagon secretion compared to vehicle [6]: 200.2 ± 21.7% | effect on α-cell glucagon secretion [6]: significantly raised α-cell glucagon secretion

Structure (SMILES): O=C(CCCN1CCC(O)(c2ccc(Cl)cc2)CC1)c1ccc(F)cc1 [haloperidol]
increase in GSIS compared to vehicle ([4]; human islets): 24.1 ± 4.6% | effect on glucose-stimulated insulin secretion ([4]; human islets): raised glucose-stimulated insulin secretion | increase in glucagon secretion compared to vehicle [6]: 67.1 ± 13.6% | effect on α-cell glucagon secretion [6]: significantly raised α-cell glucagon secretion

Structure (SMILES): CC(C)NC[C@H](O)COc1cccc2ccccc12 [propranolol, S-(−)-propranolol]
effect of propranolol on DA-induced glucagon secretion ([3]; mouse islets, propranolol 100 nM pre-treatment prior to DA): attenuates DA’s enhancement of glucagon secretion; also recorded: eliminated DA-induced increases in α-cell glucagon secretion

Structure (SMILES): Cc1cc2c(s1)Nc1ccccc1N=C2N1CCN(C)CC1 [olanzapine]
increase in GSIS compared to vehicle ([4]; human islets): 43.6 ± 3.1% | effect on glucose-stimulated insulin secretion ([4]; human islets): raised glucose-stimulated insulin secretion | increase in glucagon secretion compared to vehicle [6]: 105.7 ± 23.4% | effect on α-cell glucagon secretion [6]: significantly raised α-cell glucagon secretion

Structure (SMILES): Clc1cccc(Cl)c1N=C1NCCN1 [clonidine]
GSIS inhibition in KO cells [9]: attenuated; also recorded: virtually eliminated | IC50 [5, 13]: 12.7 ± 1.3 nM

Structure (SMILES): COC1(C2=NCCN2)COc2ccccc2O1 (centres unmarked) [[^3H]RX821002]
Bmax, saturation binding [10]: 5691 ± 103 fmol/mg protein | Bmax, saturation binding ([10]; listed as [3H]RX821002): 5691±103 fmol/mg protein | Kd ([10]; read-out: KD, saturation binding): 0.67 ± 0.05 nM | Bmax, saturation binding [2]: 110 ± 3.3 fmol/mg protein | Bmax, saturation binding ([2]; listed as [3H]RX821002): 110±0.02 fmol/mg protein | Kd ([2]; listed as [3H]RX821002): 0.098 ± 0.02 nM | Kd [2]: 0.1 ± 0.02 nM | Bmax, saturation binding [11]: 29.1 ± 4.3 fmol/mg protein

Structure (SMILES): N[C@@H](Cc1ccc(O)c(O)c1)C(=O)O [L-DOPA, L-3,4-dihydroxyphenylalanine]
fold increase in NE [12, 14]: 3 fold | fold increase in α-cell DA secretion [12, 14]: 60 fold | DA levels, fold more compared to NE ([12]; pre-incubation with 10 μM L-DOPA): 27 fold
